How the values were obtained:
FLT3 = molecular target: T1, FLT3 (Homo sapiens, UniProt P36888); experiment: TR-FRET kinase activity assay, FLT3; assay type: biochemical; conditions: ATP at Km, 60 minutes
T1 sequence (P36888 27-993): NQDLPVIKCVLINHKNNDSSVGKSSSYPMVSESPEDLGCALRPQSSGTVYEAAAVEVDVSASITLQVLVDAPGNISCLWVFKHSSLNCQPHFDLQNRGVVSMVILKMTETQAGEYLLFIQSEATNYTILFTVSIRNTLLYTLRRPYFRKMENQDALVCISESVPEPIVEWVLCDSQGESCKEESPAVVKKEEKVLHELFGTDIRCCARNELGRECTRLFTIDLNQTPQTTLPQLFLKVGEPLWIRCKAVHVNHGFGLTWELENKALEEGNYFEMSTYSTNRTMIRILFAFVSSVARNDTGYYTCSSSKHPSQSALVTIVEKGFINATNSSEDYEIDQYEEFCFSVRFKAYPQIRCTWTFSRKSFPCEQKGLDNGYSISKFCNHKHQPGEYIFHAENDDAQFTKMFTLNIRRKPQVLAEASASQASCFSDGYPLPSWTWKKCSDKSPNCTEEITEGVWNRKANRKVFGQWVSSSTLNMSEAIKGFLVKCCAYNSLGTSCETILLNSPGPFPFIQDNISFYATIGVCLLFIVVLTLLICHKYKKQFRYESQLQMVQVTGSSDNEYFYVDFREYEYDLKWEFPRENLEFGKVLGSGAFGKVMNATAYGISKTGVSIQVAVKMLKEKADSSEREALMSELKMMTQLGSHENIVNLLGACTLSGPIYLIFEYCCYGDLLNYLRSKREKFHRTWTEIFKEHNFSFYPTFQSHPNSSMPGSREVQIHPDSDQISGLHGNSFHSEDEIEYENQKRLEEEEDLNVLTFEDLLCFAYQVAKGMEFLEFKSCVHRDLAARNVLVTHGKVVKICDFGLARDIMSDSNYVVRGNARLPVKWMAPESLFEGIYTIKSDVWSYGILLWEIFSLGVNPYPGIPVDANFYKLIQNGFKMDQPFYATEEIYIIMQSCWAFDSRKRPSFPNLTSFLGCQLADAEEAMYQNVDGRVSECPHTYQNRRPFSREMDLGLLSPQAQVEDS
Summary of the method: (§1)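 Enzyme + labelled peptide + cpd premixed; ATP at per-enzyme Km starts rxn. 60 min RT, HEPES pH 7.5/MgCl2/EGTA/Brij 35/DTT buffer. Stop 12.5 mM EDTA, Eu phospho-Ab 30 min dark, TR-FRET read → IC50.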

MERTK = molecular target: T2, MERTK (Homo sapiens, UniProt Q12866); experiment: TR-FRET kinase activity assay, MERTK; assay type: biochemical; conditions: for IC50: TR-FRET activity assay, ATP at Km, 60 minutes, read-out: Mer IC50; for FLT3/Mer ratio (FLT3 IC50/Mer IC50): ratio of Mer to FLT3: FLT3 IC50/Mer IC50
T2 sequence (Q12866 21-999): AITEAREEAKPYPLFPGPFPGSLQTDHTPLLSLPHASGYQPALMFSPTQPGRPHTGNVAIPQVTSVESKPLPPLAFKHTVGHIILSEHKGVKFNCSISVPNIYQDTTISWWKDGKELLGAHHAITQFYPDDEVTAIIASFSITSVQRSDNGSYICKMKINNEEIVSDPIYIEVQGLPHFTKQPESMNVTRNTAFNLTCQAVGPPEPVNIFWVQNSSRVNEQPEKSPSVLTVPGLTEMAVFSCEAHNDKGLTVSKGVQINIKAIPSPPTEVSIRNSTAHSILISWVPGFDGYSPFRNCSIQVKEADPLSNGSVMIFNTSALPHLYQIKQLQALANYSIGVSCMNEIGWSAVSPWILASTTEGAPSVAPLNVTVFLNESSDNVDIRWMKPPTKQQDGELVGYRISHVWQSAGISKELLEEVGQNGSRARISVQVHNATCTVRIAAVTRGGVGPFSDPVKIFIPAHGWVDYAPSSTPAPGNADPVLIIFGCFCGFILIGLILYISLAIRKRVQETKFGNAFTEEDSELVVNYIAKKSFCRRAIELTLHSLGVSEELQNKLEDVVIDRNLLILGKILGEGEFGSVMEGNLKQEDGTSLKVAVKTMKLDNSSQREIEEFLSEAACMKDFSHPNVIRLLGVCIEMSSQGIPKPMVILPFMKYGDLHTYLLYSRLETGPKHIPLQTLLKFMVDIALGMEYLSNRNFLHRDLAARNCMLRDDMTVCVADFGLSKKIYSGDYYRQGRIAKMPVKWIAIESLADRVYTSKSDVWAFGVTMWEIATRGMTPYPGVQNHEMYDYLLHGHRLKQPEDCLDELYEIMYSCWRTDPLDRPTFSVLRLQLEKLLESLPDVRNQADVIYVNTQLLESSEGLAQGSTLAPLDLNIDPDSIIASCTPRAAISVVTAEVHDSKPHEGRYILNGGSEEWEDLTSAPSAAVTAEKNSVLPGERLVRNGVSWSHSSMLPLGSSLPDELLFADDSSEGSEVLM
Summary of the method: as §1

SMILES	IC50 (FLT3)	IC50 (MERTK)	FLT3/Mer ratio (FLT3 IC50/Mer IC50) (MERTK)
COC[C@H](C)Nc1ncc2c(-c3cccc(CN4CCC(F)(F)C4)c3)cc([C@H]3CC[C@H](O)CC3)n2n1 [Compound 223]	1000 to 10000 nM	≤ 100 nM	+++ (“+++” represents a ratio of >100)
COC[C@H](C)Nc1ncc2c(-c3cccc(CN4CC[C@@H](F)C4)c3)cc([C@H]3CC[C@H](O)CC3)n2n1 [Compound 224]	100 to 1000 nM	≤ 100 nM	+++ (“+++” represents a ratio of >100)
COCC(C)Nc1ncc2c(-c3cccc(CN4CCC(F)C4)c3)cc(C3CCC(O)CC3)n2n1 (stereo not drawn) [Compound 225]	100 to 1000 nM	≤ 100 nM	+++ (“+++” represents a ratio of >100)
COC[C@H](C)Nc1ncc2c(-c3ccc(C(=O)N4CCN(C)CC4)nc3)cc([C@H]3CC[C@H](O)CC3)n2n1 [Compound 226]	100 to 1000 nM	≤ 100 nM	+++ (“+++” represents a ratio of >100)
COC[C@H](C)Nc1ncc2c(-c3ccc(C(=O)N4CCOCC4)nc3)cc([C@H]3CC[C@H](O)CC3)n2n1 [Compound 227]	1000 to 10000 nM	≤ 100 nM	+++ (“+++” represents a ratio of >100)
COC[C@H](C)Nc1ncc2c(-c3ccc(C(=O)NC(C)C)nc3)cc([C@H]3CC[C@H](O)CC3)n2n1 [Compound 228, 5-(7-((1r,4S)-4-hydroxycyclohexyl)-2-(((S)-1-methoxypropan-2-yl)amino)pyrrolo[2,1-f][1,2,4]triazin-5-yl)-N-isopropylpicolinamide]	1000 to 10000 nM	≤ 100 nM	+++ (“+++” represents a ratio of >100)
COC[C@H](C)Nc1ncc2c(-c3ccc(CN4CCOCC4)nc3)cc([C@H]3CC[C@H](O)CC3)n2n1 [Compound 230]	100 to 1000 nM	≤ 100 nM	+++ (“+++” represents a ratio of >100)
COC[C@H](C)Nc1ncc2c(-c3cncc(C)c3)cc([C@H]3CC[C@H](O)CC3)n2n1 [Compound 231]	1000 to 10000 nM	≤ 100 nM	+++ (“+++” represents a ratio of >100)
COC[C@H](C)Nc1ncc2c(-c3cncc(C(=O)N4CCCC4)c3)cc([C@H]3CC[C@H](O)CC3)n2n1 [Compound 232]	1000 to 10000 nM	≤ 100 nM	+++ (“+++” represents a ratio of >100)
COC[C@H](C)Nc1ncc2c(-c3cncc(C(=O)N4CCOCC4)c3)cc([C@H]3CC[C@H](O)CC3)n2n1 [Compound 233]	1000 to 10000 nM	≤ 100 nM	+++ (“+++” represents a ratio of >100)
COC[C@H](C)Nc1ncc2c(-c3cncc(C(=O)N4CCN(C)CC4)c3)cc([C@H]3CC[C@H](O)CC3)n2n1 [Compound 234]	1000 to 10000 nM	≤ 100 nM	+++ (“+++” represents a ratio of >100)
COC[C@H](C)Nc1ncc2c(-c3cnn(CC(=O)NC(C)C)c3)cc([C@H]3CC[C@H](O)CC3)n2n1 [Compound 235]	1000 to 10000 nM	≤ 100 nM	+++ (“+++” represents a ratio of >100)
COC[C@H](C)Nc1ncc2c(-c3cnn(CC(=O)N[C@H]4CCOC4)c3)cc([C@H]3CC[C@H](O)CC3)n2n1 [Compound 237]	100 to 1000 nM	≤ 100 nM	+++ (“+++” represents a ratio of >100)
COC[C@H](C)Nc1ncc2c(-c3cnn(CC(=O)N(C)C)c3)cc([C@H]3CC[C@H](O)CC3)n2n1 [Compound 238]	100 to 1000 nM	≤ 100 nM	+++ (“+++” represents a ratio of >100)
COC[C@H](C)Nc1ncc2c(-c3cnn(CC(=O)N4CCCC4)c3)cc([C@H]3CC[C@H](O)CC3)n2n1 [Compound 239]	100 to 1000 nM	≤ 100 nM	+++ (“+++” represents a ratio of >100)
COC[C@H](C)Nc1ncc2c(-c3cnn(CC(=O)N4CCN(C)CC4)c3)cc([C@H]3CC[C@H](O)CC3)n2n1 [Compound 240]	100 to 1000 nM	≤ 100 nM	+++ (“+++” represents a ratio of >100)
CNC(=O)Cn1cc(-c2cc([C@H]3CC[C@H](O)CC3)n3nc(N[C@@H](C)COC)ncc23)cn1 [Compound 241]	100 to 1000 nM	≤ 100 nM	+++ (“+++” represents a ratio of >100)
COC[C@H](C)Nc1ncc2c(-c3cnn([C@@H]4CCOC4)c3)cc([C@H]3CC[C@H](O)CC3)n2n1 [Compound 242]	100 to 1000 nM	≤ 100 nM	+++ (“+++” represents a ratio of >100)
COC[C@H](C)Nc1ncc2c(-c3cnn([C@H]4CCOC4)c3)cc([C@H]3CC[C@H](O)CC3)n2n1 [Compound 243]	100 to 1000 nM	≤ 100 nM	+++ (“+++” represents a ratio of >100)
CC(CCF)Nc1ncc2c(-c3ccc(CN4CCOCC4)cc3)cc(C3CCC(O)CC3)n2n1 (stereo not drawn) [Compound 244]	≤ 100 nM	≤ 100 nM	++ (“++” represents a ratio of between 10 and 100)
CNC(=O)c1cncc(-c2cc([C@H]3CC[C@H](O)CC3)n3nc(N[C@@H](C)COC)ncc23)c1 [Compound 245]	1000 to 10000 nM	≤ 100 nM	+++ (“+++” represents a ratio of >100)
COC[C@H](C)Nc1ncc2c(-c3ccc(C)nc3)cc([C@H]3CC[C@H](O)CC3)n2n1 [Compound 246]	100 to 1000 nM	≤ 100 nM	+++ (“+++” represents a ratio of >100)
COC[C@H](C)Nc1ncc2c(-c3cncc(C(N)=O)c3)cc([C@H]3CC[C@H](O)CC3)n2n1 [Compound 247]	1000 to 10000 nM	≤ 100 nM	+++ (“+++” represents a ratio of >100)
